Measured values: patent US20090306133A1, “New Acetyl Coenzyme A Carboxylase (ACC) Inhibitors And Uses In Treatments Of Obesity And Diabetes Mellitus - 087” (ASTRAZENECA AB, priority 2007, published 2009)

Assays:
[1] = biological target: Human recombinant Acetyl-CoA Carboxylase 1 (ACC1) (Homo sapiens, UniProt Q13085); assay: Assay X: ACC1 inhibition, inorganic phosphate (malachite green); assay type: biochemical; settings: Assay X: 37° C., 1.5 h, 5 min pre-incubation
Method: (§1) Human recombinant Acetyl-CoA Carboxylase 1 and Acetyl-CoA Carboxylase 2 (ACC1 and ACC2) were assayed by determining the amount of inorganic phosphate (Pi) generated. Pre-incubation of 15 μL enzyme together with 0.75 μL DMSO+/−compound for 5 min was done before the reaction was initiated by the addition of 10 μL substrate. […] After 1.5 h the reaction was stopped by addition of 74 μL of water followed by extensive mixing, split and transfer of 2×40 μL to a read-plate encompassing 30 μL distilled H2O per well (n=2→n=4). Colour reaction was initiated by addition of 30 μL malachite green reagent per well and allowed 15 min before absorbance reading of the plates at 660 nm. The malachite green reagent was prepared by mixing 16.4 mL ammonium molybdate solution (7.5%), 1.64 mL Tween (11%) with 82 mL Malachite Green/H2SO4-solution (0.7 g Malachite Green to 1000 mL of 10% (v/v) H2SO4).
(§2) All compounds were tested in triplicate at 10 different concentrations. Control compound (0, 50 and 100% effect) was included on each plate. […] Curve fitting was done using the following equation: y=(A+((B−A)/(1+((x/C)̂D)))) where A and B represents the curve bottom (% inhibition) and the total amplitude (% inhibition), respectively, whereas C and D are the apparent IC50 and curve slope, respectively.

[2] = biological target: Human recombinant Acetyl-CoA Carboxylase 2 (ACC2) (Homo sapiens, UniProt O00763); assay: Assay X: ACC2 inhibition, inorganic phosphate (malachite green); assay type: biochemical; settings: Assay X: 37° C., 1.5 h, 5 min pre-incubation
Sequence of Human recombinant Acetyl-CoA Carboxylase 2 (ACC2) (O00763 whole entry): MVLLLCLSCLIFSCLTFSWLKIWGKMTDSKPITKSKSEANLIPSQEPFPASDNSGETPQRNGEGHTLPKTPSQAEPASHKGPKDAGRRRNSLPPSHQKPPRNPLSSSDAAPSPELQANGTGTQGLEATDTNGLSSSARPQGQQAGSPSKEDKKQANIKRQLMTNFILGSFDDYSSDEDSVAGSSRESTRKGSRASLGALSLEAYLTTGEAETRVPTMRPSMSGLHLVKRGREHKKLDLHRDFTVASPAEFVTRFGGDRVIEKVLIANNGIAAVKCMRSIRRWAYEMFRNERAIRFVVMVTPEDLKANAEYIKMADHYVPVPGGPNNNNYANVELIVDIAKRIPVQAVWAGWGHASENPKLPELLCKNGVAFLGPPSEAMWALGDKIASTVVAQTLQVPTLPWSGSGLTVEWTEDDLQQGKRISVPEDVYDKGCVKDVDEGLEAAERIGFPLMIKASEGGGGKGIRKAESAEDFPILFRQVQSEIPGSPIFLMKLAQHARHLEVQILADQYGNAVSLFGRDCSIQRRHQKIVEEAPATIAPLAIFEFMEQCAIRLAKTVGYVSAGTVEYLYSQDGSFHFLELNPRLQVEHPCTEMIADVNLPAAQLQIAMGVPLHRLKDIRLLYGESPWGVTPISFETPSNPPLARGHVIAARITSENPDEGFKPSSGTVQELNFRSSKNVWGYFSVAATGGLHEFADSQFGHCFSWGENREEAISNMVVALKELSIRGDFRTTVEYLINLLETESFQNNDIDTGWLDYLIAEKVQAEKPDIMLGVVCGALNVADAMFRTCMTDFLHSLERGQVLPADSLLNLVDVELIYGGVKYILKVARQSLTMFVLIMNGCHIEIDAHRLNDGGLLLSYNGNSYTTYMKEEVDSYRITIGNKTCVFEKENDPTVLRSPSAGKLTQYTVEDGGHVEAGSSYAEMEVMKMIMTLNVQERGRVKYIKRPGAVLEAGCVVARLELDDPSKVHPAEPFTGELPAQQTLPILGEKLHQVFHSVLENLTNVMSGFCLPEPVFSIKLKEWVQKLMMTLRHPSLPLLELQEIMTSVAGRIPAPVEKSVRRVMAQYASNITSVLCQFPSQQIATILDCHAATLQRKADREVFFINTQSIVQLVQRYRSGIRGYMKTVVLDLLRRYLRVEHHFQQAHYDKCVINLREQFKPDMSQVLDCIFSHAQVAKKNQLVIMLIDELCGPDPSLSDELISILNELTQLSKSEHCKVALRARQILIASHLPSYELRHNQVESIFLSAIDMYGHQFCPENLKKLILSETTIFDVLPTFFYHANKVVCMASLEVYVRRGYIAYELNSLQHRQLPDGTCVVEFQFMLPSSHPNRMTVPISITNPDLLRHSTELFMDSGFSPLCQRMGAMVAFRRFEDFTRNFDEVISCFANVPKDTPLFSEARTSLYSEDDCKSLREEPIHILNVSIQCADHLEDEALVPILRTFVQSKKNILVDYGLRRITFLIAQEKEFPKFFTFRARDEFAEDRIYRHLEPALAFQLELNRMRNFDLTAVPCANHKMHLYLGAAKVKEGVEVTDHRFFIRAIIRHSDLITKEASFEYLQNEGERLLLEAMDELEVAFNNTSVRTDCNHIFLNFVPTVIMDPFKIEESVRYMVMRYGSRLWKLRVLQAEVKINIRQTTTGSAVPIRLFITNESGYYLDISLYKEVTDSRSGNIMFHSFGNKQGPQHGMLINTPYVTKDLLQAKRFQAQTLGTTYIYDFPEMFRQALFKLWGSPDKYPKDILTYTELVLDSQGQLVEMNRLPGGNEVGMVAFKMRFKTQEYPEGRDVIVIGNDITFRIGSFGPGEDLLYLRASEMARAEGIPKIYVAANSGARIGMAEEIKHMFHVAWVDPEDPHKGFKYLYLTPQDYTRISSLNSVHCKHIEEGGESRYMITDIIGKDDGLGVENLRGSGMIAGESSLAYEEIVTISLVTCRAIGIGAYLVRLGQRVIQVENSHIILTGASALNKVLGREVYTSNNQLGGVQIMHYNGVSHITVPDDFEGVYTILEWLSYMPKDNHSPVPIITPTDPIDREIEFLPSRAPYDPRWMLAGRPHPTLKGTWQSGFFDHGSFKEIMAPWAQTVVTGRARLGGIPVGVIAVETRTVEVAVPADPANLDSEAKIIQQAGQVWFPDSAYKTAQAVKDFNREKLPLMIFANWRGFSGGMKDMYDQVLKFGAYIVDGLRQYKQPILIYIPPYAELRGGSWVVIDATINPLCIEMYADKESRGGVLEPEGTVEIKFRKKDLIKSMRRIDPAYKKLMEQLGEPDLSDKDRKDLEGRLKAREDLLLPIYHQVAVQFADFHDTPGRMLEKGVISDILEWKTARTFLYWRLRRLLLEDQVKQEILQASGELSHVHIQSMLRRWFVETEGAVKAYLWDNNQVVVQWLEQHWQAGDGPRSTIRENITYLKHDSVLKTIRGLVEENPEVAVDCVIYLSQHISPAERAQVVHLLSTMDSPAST
Method: as §1, §2

| IC50 [1] [nM] | IC50 [2] [nM] | SMILES |
| --- | --- | --- |
| 4450 | 630 | CN(C)CCOC1CN(c2cc(C(=O)NC[C@H]3CC[C@H](CNC(=O)OC(C)(C)C)CC3)c3ccccc3n2)C1 [Example 238, tert-Butyl {[trans-4-({[(2-{3-[2-(dimethylamino)ethoxy]azetidin-1-yl}quinolin-4-yl)carbonyl]amino}methyl)cyclohexyl]methyl}carbamate] |
| 950 | 110 | CC(C)(C)OC(=O)NC[C@H]1CC[C@H](CNC(=O)c2cc(N3CCC(CCN4CCC4)CC3)nc3ccccc23)CC1 [Example 234, tert-Butyl [(trans-4-{[({2-[4-(2-azetidin-1-ylethyl)piperidin-1-yl]quinolin-4-yl}carbonyl)amino]methyl}cyclohexyl)methyl]carbamate] |
| 1160 | 230 | CCNC(=O)Nc1sc2ccccc2c1C(=O)NC[C@H]1CC[C@H](CNC(=O)OC(C)(C)C)CC1 [Example 223, tert-Butyl [(trans-4-{[({2-[(ethylcarbamoyl)amino]-1-benzothiophen-3-yl}carbonyl)amino]methyl}cyclohexyl)methyl]carbamate] |
| 3480 | 920 | CN(C)CCOc1ccc(-c2cc(C(=O)NC[C@H]3CC[C@H](CNC(=O)O[C@H]4CCOC4)CC3)c3ccccc3n2)cn1 [Example 196, (3S)-Tetrahydrofuran-3-yl {[trans-4-({[(2-{6-[2-(dimethylamino)ethoxy]pyridin-3-yl}quinolin-4-yl)carbonyl]amino}methyl)cyclohexyl]methyl}carbamate] |
| 4700 | 730 | CN(C)CCNC(=O)C1CN(c2cc(C(=O)NC[C@H]3CC[C@H](CNC(=O)OC(C)(C)C)CC3)c3ccccc3n2)C1 [Example 217, tert-Butyl ({trans-4-[({[2-(3-{[2-(dimethylamino)ethyl]carbamoyl}azetidin-1-yl)quinolin-4-yl]carbonyl}amino)methyl]cyclohexyl}methyl)carbamate] |
| 2170 | 850 | O=C(NC[C@H]1CC[C@H](CNC(=O)c2cc(-c3ccc(N4CC[C@@H](O)C4)nc3)nc3ccccc23)CC1)O[C@H]1CCOC1 [Example 201, (3S)-Tetrahydrofuran-3-yl {[trans-4-({[(2-{6-[(3R)-3-hydroxypyrrolidin-1-yl]pyridin-3-yl}quinolin-4-yl)carbonyl]amino}methyl)cyclohexyl]methyl}-carbamate] |
| 1800 | 550 | CN1CCN(CCOc2ccc(-c3cc(C(=O)NC[C@H]4CC[C@H](CNC(=O)OC(C)(C)C)CC4)c4ccccc4n3)cn2)CC1 [Example 179, tert-Butyl{[trans-4-({[(2-{6-[2-(4-methylpiperazin-1-yl)ethoxy]pyridin-3-yl}quinolin-4-yl)carbonyl]amino}-methyl)cyclohexyl]-methyl}carbamate] |
| 610 | 160 | CC(C)(C)OC(=O)NC[C@H]1CC[C@H](CNC(=O)c2cc(-c3ccc(N4CCC(O)CC4)nc3)nc3ccccc23)CC1 [Example 151, tert-Butyl[(trans-4-{[({2-[6-(4-hydroxypiperidin-1-yl)pyridin-3-yl]-quinolin-4-yl}-carbonyl)amino]methyl}cyclohexyl)methyl]carbamate] |
| 920 | 110 | COC1CN(CCC2CCN(c3cc(C(=O)NC[C@H]4CC[C@H](CNC(=O)OC(C)(C)C)CC4)c4ccccc4n3)CC2)C1 [Example 229, tert-Butyl{[trans-4-({[(2-{4-[2-(3-methoxyazetidin-1-yl)ethyl]piperidin-1-yl}quinolin-4-yl)carbonyl]amino}-methyl)cyclohexyl]-methyl}carbamate] |
| 4400 | 1580 | CC(C)(C)OC(=O)NC[C@H]1CC[C@H](CNC(=O)c2cc(-c3ccc(NCCC(N)=O)nc3)nc3ccccc23)CC1 [Example 167, tert-Butyl{[trans-4-({[(2-{6-[(3-amino-3-oxopropyl)amino]pyridin-3-yl}quinolin-4-yl)-carbonyl]amino}methyl)cyclohexyl]methyl}carbamate] |
| 740 | 350 | CC(C)(C)OC(=O)NC[C@H]1CC[C@H](CNC(=O)c2cc(-c3cn[nH]c3)nc(-c3cccc(CN)c3)c2)CC1 [Example 239, tert-Butyl [(trans-4-{[({2-[3-(aminomethyl)phenyl]-6-(1H-pyrazol-4-yl)pyridin-4-yl}carbonyl)amino]methyl}cyclohexyl)methyl]carbamate] |
| 1080 | 360 | CC(C)(C)OC(=O)NC[C@H]1CC[C@H](CNC(=O)c2cc(-c3cccnc3)nc(-c3cccc(CN)c3)c2)CC1 [Example 240, tert-Butyl [(trans-4-{[({6-[3-(aminomethyl)phenyl]-2,3′-bipyridin-4-yl}carbonyl)amino]methyl}cyclohexyl)methyl]carbamate] |
| 540 | 160 | CC(C)(C)OC(=O)NC[C@H]1CC[C@H](CNC(=O)c2cc(-c3ccc(N4CCNC(=O)C4)nc3)nc3ccccc23)CC1 [Example 165, tert-Butyl[(trans-4-{[({2-[6-(3-oxopiperazin-1-yl)-pyridin-3-yl]quinolin-4-yl}carbonyl)amino]-methyl}cyclohexyl)methyl]carbamate] |
| 1100 | 510 | O=C(NC[C@H]1CC[C@H](CNC(=O)c2cc(-c3ccc(N4CC[C@@H](O)C4)nc3)nc3ccccc23)CC1)OC1CCOCC1 [Example 202, Tetrahydro-2H-pyran-4-yl {[trans-4-({[(2-{6-[(3R)-3-hydroxypyrrolidin-1-yl]pyridin-3-yl}quinolin-4-yl)carbonyl]amino}methyl)cyclohexyl]methyl}-carbamate] |
| 300 | 160 | CC(C)(C)OC(=O)NC[C@H]1CC[C@H](CNC(=O)c2cc(-c3ccc(N4CCC(CO)CC4)nc3)nc3ccccc23)CC1 [Example 161, tert-Butyl{[trans-4-({[(2-{6-[4-(hydroxymethyl)piperidin-1-yl]pyridin-3-yl}-quinolin-4-yl)-carbonyl]amino}methyl)cyclohexyl]methyl}carbamate] |
| 680 | 230 | CC(C)(C)OC(=O)NC[C@H]1CC[C@H](CNC(=O)c2cc(-c3ccc(N4CC(O)C4)nc3)nc3ccccc23)CC1 [Example 168, tert-Butyl[(trans-4-{[({2-[6-(3-hydroxyazetidin-1-yl)-pyridin-3-yl]quinolin-4-yl}carbonyl)amino]-methyl}cyclohexyl)methyl]carbamate] |
| 3310 | 2240 | CN1CCN(C2CCN(c3cc(C(=O)NC[C@H]4CC[C@H](CNC(=O)OC(C)(C)C)CC4)c4ccccc4n3)CC2)CC1 [Example 214, tert-Butyl[(trans-4-{[({2-[4-(4-methylpiperazin-1-yl)piperidin-1-yl]-quinolin-4-yl}carbonyl)amino]methyl}cyclohexyl)methyl]-carbamate] |
| 810 | 350 | COCCNc1ccc(-c2cc(C(=O)NC[C@H]3CC[C@H](CNC(=O)OC(C)(C)C)CC3)c3ccccc3n2)cn1 [Example 156, tert-Butyl{[trans-4-({[(2-{6-[(2-methoxyethyl)amino]pyridin-3-yl}quinolin-4-yl)carbonyl]amino}methyl)cyclohexyl]methyl}carbamate] |
| 550 | 80 | CC(C)(C)OC(=O)NC[C@H]1CC[C@H](CNC(=O)c2cc(N3CCC(CCN4CC(N)C4)CC3)nc3ccccc23)CC1 [Example 236, tert-Butyl {[trans-4-({[(2-{4-[2-(3-aminoazetidin-1-yl)ethyl]piperidin-1-yl}quinolin-4-yl)carbonyl]amino}methyl)cyclohexyl]methyl}carbamate] |
| 290 | 140 | CC(C)(C)OC(=O)NC[C@H]1CC[C@H](CNC(=O)c2cc(-c3ccc(N4CCOC(CO)C4)nc3)nc3ccccc23)CC1 (relative stereo) [Example 171, tert-Butyl{[trans-4-({[(2-{6-[2-(hydroxymethyl)morpholin-4-yl]-pyridin-3-yl}quinolin-4-yl)carbonyl]amino}-methyl)cyclohexyl]-methyl}carbamate] |
| 260 | 110 | CC(C)(C)OC(=O)NC[C@H]1CC[C@H](CNC(=O)c2cc(-c3ccc(N)nc3)nc(-c3cccc(CN)c3)c2)CC1 [Example 241, tert-Butyl [(trans-4-{[({6′-amino-6-[3-(aminomethyl)phenyl]-2,3′-bipyridin-4-yl}carbonyl)amino]methyl}cyclohexyl)methyl]carbamate] |
|  | 410 | CC(C)(C)OC(=O)NC[C@H]1CC[C@H](CNC(=O)c2cc(-c3ccc(OCC4CCOC4)nc3)nc3ccccc23)CC1 (stereo partly drawn) [Example 173, tert-Butyl [(trans-4-{[({2-[6-(tetrahydrofuran-3-ylmethoxy)pyridin-3-yl]quinolin-4-yl}carbonyl)amino]methyl}cyclohexyl)methyl]carbamate] |

| SMILES | IC50 [1] [nM] | IC50 [2] [nM] |
| --- | --- | --- |
| CC(CNc1ccc(-c2cc(C(=O)NC[C@H]3CC[C@H](CNC(=O)OC(C)(C)C)CC3)c3ccccc3n2)cn1)C(=O)O (relative stereo) [Example 158, 3-{[5-(4-{[(trans-4-{[(tert-Butoxycarbonyl)amino]methyl}cyclohexyl)methyl]-carbamoyl}quinolin-2-yl)pyridin-2-yl]amino}-2-methyl-propanoic acid] | 3870 | 1240 |
